The subject of data set [1] is female Sprague Daley rats. The experiment in a line: Mean arterial pressure and heart rate in anaesthetized female rats. The class given is in vivo, rat. To be noted: infusion 0.3 to 10 mg/kg, versus vehicle. The method, then: Measurements mean arterial pressure and heart rate: The anaesthetized rats breathed spontaneously and body temperature was monitored continuously, and maintained at 37.5° C. by placing them on a heating blanket. A heparinized (100 IE mL-1) polyethylene (PE) catheter (PE-50) connected to a pressure transducer (Disposable BP Transducer, AD Instruments, UK) was introduced into the carotid artery to measure MAP. Following a stabilization period of 10-20 min, continuous direct measurements of mean arterial pressure (MAP) and heart rate (HR) were obtained, registered, and analysed on a computerized data acquisition system (PowerLab, ADInstruments).

For data set [2], the target named is T1, dopamine (DA) reuptake in synaptosomes (Rattus norvegicus, UniProt P23977).
T1 construct: in synaptosomes as described in WO 97/16451; from tissue
T1 sequence (P23977 whole entry): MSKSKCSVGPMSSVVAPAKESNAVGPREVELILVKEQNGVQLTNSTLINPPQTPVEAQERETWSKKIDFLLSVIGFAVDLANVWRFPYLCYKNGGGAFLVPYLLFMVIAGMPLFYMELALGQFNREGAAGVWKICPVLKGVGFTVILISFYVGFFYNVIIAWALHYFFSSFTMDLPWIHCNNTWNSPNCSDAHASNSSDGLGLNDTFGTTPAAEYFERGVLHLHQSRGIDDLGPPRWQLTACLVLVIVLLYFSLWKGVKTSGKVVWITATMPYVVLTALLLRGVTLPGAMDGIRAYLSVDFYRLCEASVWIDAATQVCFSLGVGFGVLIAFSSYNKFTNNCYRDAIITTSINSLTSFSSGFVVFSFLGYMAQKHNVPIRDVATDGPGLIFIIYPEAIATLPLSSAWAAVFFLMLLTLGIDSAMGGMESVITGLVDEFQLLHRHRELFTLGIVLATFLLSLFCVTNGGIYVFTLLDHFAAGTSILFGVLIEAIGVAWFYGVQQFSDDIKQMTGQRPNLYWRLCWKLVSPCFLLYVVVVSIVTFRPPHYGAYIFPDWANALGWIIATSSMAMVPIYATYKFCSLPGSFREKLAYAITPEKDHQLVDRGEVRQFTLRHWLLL
Briefly: Inhibition of dopamine (DA) reuptake in synaptosomes. The class given is biochemical. The settings on record: 3H-DA, read-out: DA-uptake IC50. As to the method:
(§1) Compounds were tested for their ability to inhibit the reuptake of the monoamine neurotransmitters dopamine (DA), noradrenaline (NA), and serotonin (5-HT) in synaptosomes as described in WO 97/16451 (NeuroSearch A/S).
(§2) The test values are given as IC50 (the concentration (μM) of the test substance which inhibits the specific binding of ^3H-DA, ^3H-NA, or ^3H-5-HT by 50%).

Data set [3] relates to female Sprague Daley rats. Briefly: Laser Doppler measurement of clitoral blood flow in anaesthetized female rats. The class given is in vivo, rat. The method, then:
(§3) Animals: The experimental setup was run in two different sets of measurement procedures to avoid a variation given by each other. The first set of experiments was run in control female rats, and the second set was run in a depressed model called Flint Sensitive Line (FSL), which shares molecular similarities to major depressive patients.
(§4) Anesthesia and general surgical procedure: The rats were injected intraperitoneally with pentobarbital 50 mg/Kg. After 10 min in dark conditions a pinch of the interdigital area confirmed unresponsive of reflexes and the animal was prepared on a table, where legs were semi-extended by tape to fix the animal. The areas of interest (abdomen-inguinal and neck) were shaved and clean-disinfected with water and ethanol. After each study was completed, the animal was sacrificed by an overdose of pentobarbital, and the Atlanto-occipital joint was severed to guarantee a painless procedure for the animal.
Measurements of clitoral blood flow and genital temperature: A suture Nylon 4-0 with a needle was used to extend the urethra opening and expose the mucosa. […] A calibrated laser Doppler flow probe (VP1T, Moor instruments-UK) was used to measure on the front-side of the clitoris, which was connected to the laser Doppler flow monitor; MOORVMS-LDF2 (Moor instruments-UK). A laser Doppler probe was positioned and fixed to a base and a crocodile clamp in order to avoid any movement. The tip of the calibrated probe was immersed in a water-based gel in the exposed area of the urethra-clitoris (FIG. 1B).
A calibrated laser Doppler flow probe (VP1T, Moor instruments-UK) was used to measure on the front-side of the clitoris, which was connected to the laser Doppler flow monitor; MOORVMS-LDF2 (Moor instruments-UK). […] The infusion protocol was performed in sets of 1 min infusion +4 min of further recording of blood flow changes recorded by the system. Electrical field stimulation of the cavernous nerve to the clitoris was utilized as a positive control as described below.
Measurements of clitoral blood flow following electrical stimulation of the cavernous nerve to the clitoris: Through a lower abdominal incision, the cavernous nerve to clitoris was isolated, and electrical stimulation was performed with a slender bipolar platinum electrode, which was connected to a S48 stimulator (Grass Instrument Co., Boston, MA, U.S.A.). To investigate whether stimulation of the nerve leads to hemodynamic changes in the clitorial tissue, the nerve was stimulated as previously described for male rats, with parameters eliciting the maximum amplitude of response (square wave pulses of 6 Volts, 10 Hz, 1 ms for 30 s), and flow was measured with laser Doppler. Clitoral blood flow was measured via laser Doppler as aforementioned.

In data set [4] the test system is depressed FSL rats. Briefly: Thermographic measurement of genital temperature in female rats. The class given is in vivo, rat. As to the method:
as §3, §4
A thermographic FLIR camera (E96, InfraTec, Germany, FIG. 1) was positioned at 50 cm distance from the area of interest (FIG. 1C). Three areas (thorax, vagina, and urethral-clitoris) of interest were recorded by digital markers positioned using the Research Studio-FLIR, and data were extracted and imported to Excel.

The target of data set [5] is T2, noradrenaline (NA) reuptake in synaptosomes (Rattus norvegicus, UniProt Q63380).
T2 construct: in synaptosomes as described in WO 97/16451; from tissue
T2 sequence (Q63380 1-617): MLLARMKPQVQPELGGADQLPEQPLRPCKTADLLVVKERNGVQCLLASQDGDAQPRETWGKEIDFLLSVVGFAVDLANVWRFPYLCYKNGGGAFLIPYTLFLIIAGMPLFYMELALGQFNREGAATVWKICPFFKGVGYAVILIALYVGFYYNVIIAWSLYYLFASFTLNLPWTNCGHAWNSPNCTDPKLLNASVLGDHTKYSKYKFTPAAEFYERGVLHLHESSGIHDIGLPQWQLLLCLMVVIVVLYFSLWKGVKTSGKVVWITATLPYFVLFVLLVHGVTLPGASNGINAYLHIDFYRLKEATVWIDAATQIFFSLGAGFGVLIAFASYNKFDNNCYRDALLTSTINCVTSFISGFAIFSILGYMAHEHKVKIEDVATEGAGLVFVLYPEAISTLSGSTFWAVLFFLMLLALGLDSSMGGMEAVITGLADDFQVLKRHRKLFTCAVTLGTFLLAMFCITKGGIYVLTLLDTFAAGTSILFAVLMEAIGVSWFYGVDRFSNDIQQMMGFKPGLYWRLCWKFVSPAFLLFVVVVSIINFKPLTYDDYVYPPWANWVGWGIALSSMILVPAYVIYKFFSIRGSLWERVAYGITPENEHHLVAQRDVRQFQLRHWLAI
To be noted: reported in U.S. Pat. No. 9,133,184 B1; cited from earlier work.

The target of data set [6] is T2, noradrenaline (NA) reuptake in synaptosomes. Briefly: Inhibition of noradrenaline (NA) reuptake in synaptosomes. The class given is biochemical. The settings on record: 3H-NA, read-out: NA-uptake IC50. The method, then:
as §1, §2

In data set [7] the test system is Female Sprague Dawley rats. The experiment in a line: Sexual (paracopulatory) behaviour of estrus-synchronized female rats paired with male rats. The class given is in vivo, rat. The method, then:
Animals: Female Sprague Dawley rats (12-15 weeks old) were housed in the animal facility in Universal Euro Ill type long width cages with standard wood bedding and space for 2 rats with a clean environment, and a comfortable temperature (22-23° C.) with 12:12 h light-dark cycle starting at 11 am and they had free access to food and tap water.
Synchronization of the sexual cycle in estrus of female rats: Female Sprague Dawley rats with an average weight of 250 g were synchronized in the estrus phase of the sexual cycle by injecting with 250 μg prostaglandin F2α (PGF2α) subcutaneously at day 0 and day 3.
To investigate the sexual behavior, the synchronized female rats were paired with trained male rats and behaviour recorded by two cameras. The videos were quantified by a trained operator blinded for the treatments.
Data analysis and statistics: Statistical differences between vehicle, apomorphine and two different doses of IP2015 were analysed using one-way analysis of variance (ANOVA) followed by Tukey post-test. The assumptions of the models were investigated by inspecting Q-Q plots and data were logarithmically transformed when necessary in order to generate a Gaussian-distributed data set. In case where the data were skewed, the Brown-Forsythe test was applied. The ROUT method (Q=1%) was used to exclude data from the analysis. A P<0.05 was considered statistically significant. Post-tests were only done if F was significant and there was no variance inhomogeneity. All statistical analyses were performed using GraphPad Prism 9.5 software (GraphPad Software, CA, USA).

Data set [8] deals with T1, dopamine (DA) reuptake in synaptosomes. The settings on record: reported in U.S. Pat. No. 9,133,184 B1; cited from earlier work.
Where [9] appears, read: infusion 0.3 to 10 mg/kg via jugular vein.
Where [10] appears, read: infusion 0.3 to 10 mg/kg via jugular vein, laser Doppler.
Where [11] appears, read: depressed FSL rats, infusion of increasing doses 0.3-10 mg/Kg, thermography 4x zoom.

Results on two compounds are retold here after patent US20260263443A1, “COMPOUND FOR TREATMENT OF FEMALE SEXUAL DYSFUNCTION” (Initiator Pharma A/S, priority 2022, published 2026).

The structures appear in SMILES notation. Where a name gives a salt, the structure may show the parent alone. Read-outs that look alike come from different tables or passages of the source.

In general, IC50 refers to the concentration that inhibits the measured activity by half.

With `COc1cc2ccc(O[C@@H]3C[C@H]4CC[C@@H](C3)N4)cc2oc1=O` [IP2015, exo-7-[(8-azabicyclo[3.2.1]octan-3-yl)oxy]-3-methoxy-chromen-2-one hydrochloride], in data set [1], the “heart rate (HR)” value is “significantly increased” and the “mean arterial pressure (MAP)” value is on record as “comparable to vehicle”. Moreover, the IC50 in data set [2] was 70 nM. In data set [3] (setting [9]), the “average clitoral blood flow compared to vehicle” value was “significantly increased” and the “peak clitoral blood flow compared to vehicle” value is “significantly increased”. Further, in data set [3] (setting [10]), the “duration of blood flow in the clitoral area” value is given as “increased”, the “frequency of blood flow in the clitoral area” value is listed as “increased” and the “magnitude of blood flow in the clitoral area” value was “increased”. Also, in data set [3] (laser Doppler trace, electrical stimulation of cavernous nerve gave 4.31 V), the “Peak clitoral blood flow following infusion” value is recorded as 4.49 V. Also, in data set [4] (setting [11]), the “temperature in the clitoral area” value is reported as “dose-dependent increases” and the “temperature in the vagina” value was “dose-dependent increases”. Moreover, the “core temperature (anal thermometer)” value in data set [4] (during infusion of IP2015) is listed as “unchanged”. The IC50 in data set [5] is 3.8 nM. The IC50 in data set [6] was determined as 3.8 nM. Besides, in data set [7] (10 mg/kg), the “number of hops compared to apomorphine” value is given as “increased”. For the same compound, the “darts compared with vehicle and apomorphine” value in data set [7] (1 and 10 mg/kg) was “dose-dependently increased”. Further, the ear wiggling result in data set [7] (single injection, 1 and 10 mg/kg) is recorded as “did not change”. In data set [8], the IC50 is 70 nM.

On to `CN1CCc2cccc3c2[C@H]1Cc1ccc(O)c(O)c1-3` [apomorphine, reference compound], for which, in data set [7] (0.25 mg/kg), the “paracopulatory parameters (hops, ear wiggling, darts)” value is “did not change”.
